According to article PMC5371667, “Targeting Bile Acid Receptors: Discovery of a Potent and Selective Farnesoid X Receptor Agonist as a New Lead in the Pharmacological Approach to Liver Diseases” (Frontiers in Pharmacology, 2017):
Like-named read-outs stand apart in the source and are kept apart here.

Tests used:
GST-fusion FXR-LBD = biological target: T1, GST-fusion FXR-LBD (Homo sapiens, UniProt Q96RI1); test: Alpha Screen coactivator (SRC-1 peptide) recruitment assay; format: biochemical; settings: recruitment of SRC-1 co-activator peptide, Alfa Screen, Table 1; for Efficacy: 6-ECDCA = 100
T1 construct: 10 nM of purified GST-tagged FXR-LBD protein
T1 sequence (Q96RI1 262-486 limits assumed): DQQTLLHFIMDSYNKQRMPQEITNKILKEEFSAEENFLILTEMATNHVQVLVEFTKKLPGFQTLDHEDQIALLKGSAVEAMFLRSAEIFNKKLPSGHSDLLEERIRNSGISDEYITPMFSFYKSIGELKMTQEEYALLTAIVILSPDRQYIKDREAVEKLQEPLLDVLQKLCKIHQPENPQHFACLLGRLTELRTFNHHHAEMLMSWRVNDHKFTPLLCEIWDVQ
Protocol: Activation of FXR was determined by Alpha Screen Technology in a Coactivator Recruitment Assay. Anti-GST-coated acceptor beads were used to capture the GST-fusion FXR-LBD, whereas the biotinylated-SRC-1 peptide was captured by the streptavidin donor beads. Upon illumination at 680 nm, chemical energy is transferred from donor to acceptor beads across the complex streptavidin-donor/[…]-LBD/anti-GST-acceptor and a signal is produced. The assay was performed in white, low-volume, 384-well Optiplates (PerkinElmer) using a final volume of 25 μL containing final concentrations of 10 nM of purified GST-tagged FXR-LBD protein, 30 nM biotinylated SRC-1 peptide, 20 μg/mL anti-GST acceptor beads, and 10 μg/mL of streptavidin donor bead (PerkinElmer). The assay buffer contained 50 mM Tris (pH 7.4), 50 mM KCl and 1 mM DTT. The stimulation times with 1 μL of tested compound (dissolved in 50% DMSO/H2O) were fixed to 30 min at room temperature. The concentration of DMSO in each well was maintained at a final concentration of 2%. After the addition of the detection mix (acceptor and donor beads), the plates were incubated in the dark for 3 h at room temperature and then were read in an Envision microplate analyzer (PerkinElmer).

human GPBAR1 = biological target: T2, human GPBAR1 (Homo sapiens, UniProt Q8TDU6); test: GPBAR1 transactivation on HepG2 cells (CRE luciferase reporter); format: cell-based; settings: compounds at 1 and 10 μM, TLCA 10 μM positive control
T2 construct: expressed in transfected cells; host or cells: HepG2
T2 sequence (Q8TDU6 1-330): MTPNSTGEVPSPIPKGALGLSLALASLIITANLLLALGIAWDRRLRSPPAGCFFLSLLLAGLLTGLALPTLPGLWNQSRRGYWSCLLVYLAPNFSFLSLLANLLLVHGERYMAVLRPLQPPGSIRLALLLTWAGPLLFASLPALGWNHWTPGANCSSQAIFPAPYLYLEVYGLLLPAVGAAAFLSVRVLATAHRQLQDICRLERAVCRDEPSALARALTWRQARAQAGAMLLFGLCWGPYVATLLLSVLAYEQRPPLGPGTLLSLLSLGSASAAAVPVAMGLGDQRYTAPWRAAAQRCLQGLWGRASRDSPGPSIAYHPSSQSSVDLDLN
Protocol: For FXR mediated transactivation, HepG2 cells were plated at 5 × 10^4 cells/well in a 24 well plate. Cells were transfected with 200 ng of the reporter vector p(hsp27)-TK-LUC containing a FXR response element (IR1) cloned from the promoter of heat shock protein 27 (hsp27), 100 ng of pSG5-FXR, 100 ng of pSG5-RXR, and 100 ng of pGL4.70 (Promega), a vector encoding the human Renilla gene. For GPBAR1 mediated transactivation, HepG2 cells were plated at 5 × 10^4 cells/well in a 24 well-plate and transfected with 200 ng of pGL4.29 (Promega), a reporter vector containing a cAMP response element (CRE) that drives the transcription of the luciferase reporter gene luc2P, with 100 ng of pCMVSPORT6-human GPBAR1, and with 100 ng of pGL4.70 Renilla. […] TLCA (10 μM) was used as a positive control for GPBAR1 activity.

[1] = In vivo metabolic profile of compound 2 in mice (LC-MS); settings: 50 mg/kg oral of compound 2, LC-MS
hFXR = biological target: T3, hFXR (Homo sapiens, UniProt Q96RI1); test: FXR transactivation on HepG2 cells (luciferase reporter); format: cell-based
T3 construct: expressed in transfected cells; host or cells: HepG2
T3 sequence (Q96RI1 1-486): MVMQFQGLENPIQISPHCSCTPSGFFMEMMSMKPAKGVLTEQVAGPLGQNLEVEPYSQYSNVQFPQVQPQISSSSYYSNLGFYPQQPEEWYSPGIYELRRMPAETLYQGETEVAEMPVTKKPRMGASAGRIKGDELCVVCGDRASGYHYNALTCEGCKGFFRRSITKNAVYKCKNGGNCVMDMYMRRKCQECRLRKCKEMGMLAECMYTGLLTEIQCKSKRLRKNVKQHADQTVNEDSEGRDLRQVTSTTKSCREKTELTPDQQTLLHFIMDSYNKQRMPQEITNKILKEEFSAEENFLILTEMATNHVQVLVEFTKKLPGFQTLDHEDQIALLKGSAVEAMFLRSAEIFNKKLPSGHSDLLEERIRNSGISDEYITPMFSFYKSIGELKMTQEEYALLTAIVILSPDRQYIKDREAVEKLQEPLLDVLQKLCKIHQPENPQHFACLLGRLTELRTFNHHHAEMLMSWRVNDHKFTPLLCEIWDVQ
T3 sequence (P19793 1-462 partner): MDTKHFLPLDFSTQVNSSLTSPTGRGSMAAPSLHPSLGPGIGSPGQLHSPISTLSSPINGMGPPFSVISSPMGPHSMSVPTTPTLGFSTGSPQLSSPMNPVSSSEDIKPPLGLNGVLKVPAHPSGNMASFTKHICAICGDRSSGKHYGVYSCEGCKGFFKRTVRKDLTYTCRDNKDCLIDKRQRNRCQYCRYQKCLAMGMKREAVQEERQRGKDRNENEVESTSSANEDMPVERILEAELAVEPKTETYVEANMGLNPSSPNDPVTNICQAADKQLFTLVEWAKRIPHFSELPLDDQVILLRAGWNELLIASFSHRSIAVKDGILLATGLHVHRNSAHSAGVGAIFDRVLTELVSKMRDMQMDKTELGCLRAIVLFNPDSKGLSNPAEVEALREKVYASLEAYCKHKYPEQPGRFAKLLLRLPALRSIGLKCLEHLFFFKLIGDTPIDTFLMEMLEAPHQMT
Protocol: HepG2 (HB, 8065 from ATCC), an immortalized human epatocarcinoma cell line, was cultured and maintained at 37°C and 5% CO2 in E-MEM additioned with 10% FBS, 1% glutamine, and 1% penicillin/streptomycin. For FXR mediated transactivation, HepG2 cells were plated at 5 × 10^4 cells/well in a 24 well plate. Cells were transfected with 200 ng of the reporter vector p(hsp27)-TK-LUC containing a FXR response element (IR1) cloned from the promoter of heat shock protein 27 (hsp27), 100 ng of pSG5-FXR, 100 ng of pSG5-RXR, and 100 ng of pGL4.70 (Promega), a vector encoding the human Renilla gene. For GPBAR1 mediated transactivation, HepG2 cells were plated at 5 × 10^4 cells/well in a 24 well-plate and transfected with 200 ng of pGL4.29 (Promega), a reporter vector containing a cAMP response element (CRE) that drives the transcription of the luciferase reporter gene luc2P, with 100 ng of pCMVSPORT6-human GPBAR1, and with 100 ng of pGL4.70 Renilla. […]. TLCA (10 μM) was used as a positive control for GPBAR1 activity.
HepG2 cells were transfected as described above and then treated with increasing concentrations of compounds. At 18 h post stimulations, cellular lysates were assayed for luciferase and Renilla activities using the Dual-Luciferase Reporter assay system (E1980, Promega). Luminescence was measured using Glomax 20/20 luminometer (Promega). Luciferase activities were normalized with Renilla activities.

[2] = cited from earlier work
[3] = PBC patients, ref Mason et al., 2010

Work on `CCC1C(O)C2C3CCC(C(C)CCCO)C3(C)CCC2C2(C)CCC(N=[N+]=[N-])CC12` (stereo not shown) [compound 7] yielded an EC50 (GST-fusion FXR-LBD) of 1800 ± 210 nM and an Efficacy (GST-fusion FXR-LBD) of 57.
For `CCC1C(=O)C2C3CCC(C(C)CCC(=O)O)C3(C)CCC2C2(C)CCC(N=[N+]=[N-])CC12` (stereo not shown) [compound 5], the Efficacy (GST-fusion FXR-LBD) was 24.
With `CCC1C(O)C2C3CCC(C(C)CCCO)C3(C)CCC2C2(C)CCC(N=[N+]=[N-])CC12` (stereo not shown) [compound 4] the Efficacy (GST-fusion FXR-LBD) was 39.
In the case of `CCC1C(=O)C2C3CCC(C(C)CCC(=O)O)C3(C)CCC2C2(C)CCC(N)CC12` (stereo not shown) [compound 13], the GPBAR1 transactivation (human GPBAR1) is reported as “residual activity”.
For `CC[C@H]1[C@@H](O)C2C3CC[C@H]([C@H](C)CCC(=O)NCCS(=O)(=O)O)[C@@]3(C)CCC2[C@@]2(C)CC[C@H](N=[N+]=[N-])C[C@@H]12` (stereo partly shown) [compound 2a], the “recovery in bile and plasma after administration of compound 2” value [1] was “efficiently recovered in bile and in plasma”, the EC50 (hFXR; 10 nM to 25 μM, 18 h) was 3950 nM and the “agonist activity toward FXR” value (hFXR; dose-response) was “full agonist activity”.
For `CC[C@H]1[C@@H](O)[C@@H]2[C@H](CC[C@]3(C)[C@@H]([C@H](C)CCC(=O)O)CC[C@@H]23)[C@@]2(C)CC[C@@H](O)C[C@@H]12` [6-ECDCA], the “patients with drug discontinuation caused by pruritus” value [2, 3] is listed as 40%, the “patients with pruritus (itching)” value [2, 3] is listed as 50–60% and the “patients with pruritus (itching)” value ([2]; patients with NASH, ref Neuschwander-Tetri et al., 2015) is listed as 23%.
In the case of `CCC1C(O)C2C3CCC(C(C)CCC(=O)O)C3(C)CCC2C2(C)CCC(N)CC12` (stereo not shown) [compound 14], the GPBAR1 transactivation (human GPBAR1) is reported as “residual activity”.
In the case of `CCC1C(O)C2C3CCC(C(C)CCCO)C3(C)CCC2C2(C)CCC(N=[N+]=[N-])CC12` (stereo not shown) [compound 8], the Efficacy (GST-fusion FXR-LBD) is reported as 49.
In the case of `CCC1C(O)C2C3CCC(C(C)CCCO)C3(C)CCC2C2(C)CCC(N)CC12` (stereo not shown) [compound 11], the GPBAR1 transactivation (human GPBAR1) is reported as “residual activity”.
Compound `CCC1C(O)C2C3CCC(C(C)CCC(=O)O)C3(C)CCC2C2(C)CCC(N=[N+]=[N-])CC12` (stereo not shown) [compound 6] has an EC50 (GST-fusion FXR-LBD) of 1380 ± 350 nM and an Efficacy (GST-fusion FXR-LBD) of 61.
`CCC1C(O)C2C3CCC(C(C)CCCO)C3(C)CCC2C2(C)CCC(N=[N+]=[N-])CC12` (stereo not shown) [compound 3] showed an EC50 (GST-fusion FXR-LBD) of 550 ± 80 nM and an Efficacy (GST-fusion FXR-LBD) of 55.
`CCC1C(=O)C2C3CCC(C(C)CCC(=O)O)C3(C)CCC2C2(C)CCC(N=[N+]=[N-])CC12` (stereo not shown) [compound 1] gave an Efficacy (GST-fusion FXR-LBD) of 32.
